# Data: patent publication US10435399B2, “HDAC6 inhibitory heterocyclic compound” (TAKEDA PHARMACEUTICAL COMPANY LIMITED, priority 2017, dated 2019)
# Experiments:
# HDAC6 enzyme = target: T1, HDAC6 enzyme (Homo sapiens, UniProt Q9UBN7); test: HDAC6 enzyme inhibitory activity (HDAC-Glo I/II Assay kit); assay type: biochemical; conditions: 10 μM, wells without enzyme = 100% inhibition; for inhibition at 10 µM: read-out: HDAC6 inhibitory rate (%) (10 μM)
# T1 construct: transducing full length HDAC6 gene into Sf-9 insect cells; GST; purchased SignalChem; host or cells: Sf-9 insect cells
# T1 sequence (Q9UBN7 1-1215): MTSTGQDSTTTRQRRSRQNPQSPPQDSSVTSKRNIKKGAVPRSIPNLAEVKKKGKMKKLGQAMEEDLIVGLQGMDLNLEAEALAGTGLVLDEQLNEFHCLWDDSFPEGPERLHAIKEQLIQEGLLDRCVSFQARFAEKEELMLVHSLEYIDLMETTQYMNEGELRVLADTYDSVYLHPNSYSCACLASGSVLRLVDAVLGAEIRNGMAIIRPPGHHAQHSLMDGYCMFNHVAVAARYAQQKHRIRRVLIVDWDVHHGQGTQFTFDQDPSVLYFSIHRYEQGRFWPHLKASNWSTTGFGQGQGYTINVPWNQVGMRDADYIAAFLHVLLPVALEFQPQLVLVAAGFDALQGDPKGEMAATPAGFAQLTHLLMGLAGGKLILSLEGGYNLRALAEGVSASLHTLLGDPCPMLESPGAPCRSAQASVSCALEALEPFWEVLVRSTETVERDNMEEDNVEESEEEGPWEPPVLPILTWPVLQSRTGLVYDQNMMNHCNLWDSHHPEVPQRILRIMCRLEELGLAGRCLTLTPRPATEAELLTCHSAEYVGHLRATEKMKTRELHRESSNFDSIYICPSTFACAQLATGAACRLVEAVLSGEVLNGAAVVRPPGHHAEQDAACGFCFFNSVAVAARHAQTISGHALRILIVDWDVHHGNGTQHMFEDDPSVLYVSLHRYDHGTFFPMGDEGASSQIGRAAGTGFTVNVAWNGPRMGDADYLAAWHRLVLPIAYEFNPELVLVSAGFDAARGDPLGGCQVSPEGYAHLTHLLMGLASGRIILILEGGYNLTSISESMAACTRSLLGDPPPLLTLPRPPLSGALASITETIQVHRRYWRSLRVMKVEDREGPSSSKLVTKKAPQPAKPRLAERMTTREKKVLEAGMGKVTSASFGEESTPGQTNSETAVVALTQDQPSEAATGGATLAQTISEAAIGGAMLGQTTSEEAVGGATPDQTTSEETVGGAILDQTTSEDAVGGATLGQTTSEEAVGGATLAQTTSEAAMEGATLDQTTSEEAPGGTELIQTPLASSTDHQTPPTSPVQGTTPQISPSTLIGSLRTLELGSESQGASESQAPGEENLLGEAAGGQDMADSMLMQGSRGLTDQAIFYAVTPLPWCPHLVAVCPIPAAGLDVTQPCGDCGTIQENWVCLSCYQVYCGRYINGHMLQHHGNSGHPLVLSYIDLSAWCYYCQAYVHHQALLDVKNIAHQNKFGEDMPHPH
# Procedure, shortened: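 Inhibition is calculated as relative activity, taking luminescence in enzyme-free wells as complete inhibition. The enzyme, full-length and GST-purified after Sf-9 expression, was exposed to compound for 60 min at room temperature before a 20 min HDAC-Glo reaction.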
# TK6 cells = test: γH2AX assay using TK6 cells; assay type: cell-based, Human; conditions: 4 hr treatment, up to 100 μM
# Description: γH2AX Assay Using TK6 Cells
# Human lymphoblasts-derived TK6 cells were treated with the compounds of Examples 489, 512 or 519 at 0, 10, 30 or 100 μmol/L (final concentration) for 4 hr, and the presence or absence of DNA damage was evaluated by measuring phosphorylation of histone H2AX (γH2AX) as a marker. In addition, cytotoxicity after 24-hr treatment was also evaluated.
# Exponentially growing TK6 cells were prepared at the cell density of 4×10^5 cells/mL in a culture medium, and was added to a 96-well plate by 100 μL/well. A test compound solution (2% DMSO) prepared using a culture solution, having twice the concentration on the above-mentioned final concentrations, was added thereto by 100 μL/well. This plate was incubated at 37° C., the cell suspension after 4 hr was sampled, and stained using In Vitro MultiFlow™ DNA Damage Kit (Litron), and H2AX phosphorylation level in each nucleus was measured using a flow cytometer and average value was calculated. The H2AX phosphorylation level in the concurrent vehicle control group was also measured and average value was calculated. The rate of change in the H2AX phosphorylation level in the treatment groups relative to that in the control group was calculated, and Dunnett test (significance level: two-tailed 1%) was performed. In addition, the cell suspension after 24 hr treatment was sampled, and the nucleus number was measured, and variation in the nucleus number in the treatment groups relative to that in the concurrent vehicle control group was used as an indicator of cytotoxicity. […] Therefore, the potential of the compounds for DNA strand breakage was judged to be negative under this test condition.
# bone-marrow cells = test: Micronucleus test in rats (bone-marrow cells); assay type: in vivo, rats (Crl:CD(SD))
# Description: Combination Assay of Micronucleus Test and Comet Assay in Rats […] Bone-marrow smear for micronucleus analysis was prepared as follows. Femur was cut at both ends, and washed with fetal bovine serum (FBS) in a centrifuging tube, and the obtained bone-marrow fluid was centrifuged for 5 min at room temperature. The supernatant was removed, and the cell sediment was suspended in the remaining small amount of the supernatant. A part of the suspension was dropped on a glass slide, and a cover glass was placed thereon to give a bone-marrow smear. The smear was dried well, and fixed with methanol for 5 min. The bone-marrow smear of negative control, that of treatment groups as well as the previously prepared bone-marrow smear of positive control group were encoded, and observed by the blind method. An acridine orange solution (40 μg/mL) was dropped (several drops) to the smear just before observation, and a cover glass was placed thereon. […] In addition, as an index of growth inhibitory effect on bone-marrow cell, total of 500 erythrocytes [immature erythrocytes+mature erythrocytes (ME)] per individual were observed, and immature erythrocyte rate (IE %) relative to the total number of erythrocytes was calculated.
# [1] = system: liver and glandular stomach cells; test: Comet assay in rats (liver and glandular stomach); assay type: in vivo, rats (Crl:CD(SD)); conditions: 3 days, test article = compound of Example 489
# Description: Combination Assay of Micronucleus Test and Comet Assay in Rats
# The compound of Example 489 at doses of 1000 and 2000 mg/kg was orally administered to 8 to 9-week-old rats (Crl:CD(SD), five/group) once daily for 3 days, and micronucleus induction was evaluated in bone-marrow cells, and DNA damage was evaluated by DNA fragmentation of cell nucleus in the liver and glandular stomach.
# Sample for comet assay was obtained from liver and glandular stomach by the following procedures. A part of left lateral lobe of liver was washed well with a cooled mincing buffer solution (Hanks' balanced salt solution containing 20 mmol/L EDTA and 10 vol % DMSO, pH7.5), and minced finely with dissecting scissors. This sample was kept on ice for 15 to 30 seconds, the precipitated large cell mass was removed, and the obtained cell suspension was kept on ice. Glandular stomach was added to a cooled mincing buffer solution, and kept on ice for 15 to 30 min. Then, the surface epithelium was removed by scraping gently twice, the stomach mucosa was washed well with a cooled mincing buffer solution, and the mucosa surface was taken out by scraping carefully four times or five times. This was kept on ice for 15 to 30 seconds, the precipitated large cell mass was removed, and the obtained cell suspension was kept on ice.
# The liver and glandular stomach cell suspensions prepared by the above-mentioned procedures were added to 0.5 w/v % low-melting agarose so that the concentration became 10 vol % or less, 40 μL of the suspension was dropped to MAS-coated slide (Matsunami Glass Ind., Ltd.), and fixed to give a slide sample. The slide sample was immersed in a cooled cell lysate [an aqueous solution containing 2.5 mol/L sodium chloride, 100 mmol/L EDTA, 10 mmol/L tris(hydroxymethyl)aminomethane, 10 vol % DMSO and 1 vol % Triton X-100, pH 10.0], and kept overnight under light shielding in a refrigerator (2 to 8° C.).
# The slide sample was washed with ultrapure water, set at random into an electrophoresis apparatus filled with an alkali buffer solution (an aqueous solution containing 0.3 mol/L sodium hydroxide and 1 mmol/L EDTA, pH >13) for electrophoresis. After confirming that the sample was completely immersed, the sample was left for 20 min to unwind the strands. Next, electrophorese was performed at a constant voltage of 0.7 to 1 V/cm (current is set about 0.30 A) for 20 min (the electrophoresis apparatus was kept on ice so that the alkali buffer solution for electrophoresis was kept at a constant temperature of 10° C. or below, during from the dissociation of the strands to electrophoresis). After electrophoresis, the slide sample was immersed in a neutralizing solution [0.4 mol/L aqueous tris(hydroxymethyl)aminomethane solution, pH 7.5] for 5 min or longer. Then, the slide sample was immersed in ethanol for 5 min or longer, and air-dried. […] The slide samples for negative control, test compound and positive control groups were encoded, and analyzed by the blind method. In each individual animal, 150 of suitable cells were selected for observation using a biological microscope with fluorescence attachment at 200-fold final magnification, and analyzed by image analysis software (Comet Assay IV, Perceptive Instruments Ltd.). The degree of the DNA damage was evaluated by % tail intensity calculated automatically from image analysis software. The median of the % tail intensity was calculated in each slide sample, and the average of the median was calculated in each individual. […]
smiles,measurement,setting,value
"CC(F)(F)C(=O)N[C@H]1[C@H](N2Cc3ncc(-c4nnc(C(F)F)o4)cc3C2=O)CCCC1(F)F [Example 598, N-((1S,6R)-6-(3-(5-(difluoromethyl)-1,3,4-oxadiazol-2-yl)-5-oxo-5,7-dihydro-6H-pyrrolo[3,4-b]pyridin-6-yl)-2,2-difluorocyclohexyl)-2,2-difluoropropanamide]",inhibition at 10 µM,HDAC6 enzyme,100%
same,histone H2AX phosphorylation (γH2AX) resulted from DNA strand breakage,TK6 cells,did not induce histone H2AX phosphorylation
same,potential for DNA strand breakage (judgement),TK6 cells,negative
"O=C1c2cc(-c3nnc(C(F)F)o3)cnc2CN1[C@@H]1COCC[C@H]1Oc1ccc(F)cc1F [Example 656, 1,5-anhydro-2,4-dideoxy-2-(3-(5-(difluoromethyl)-1,3,4-oxadiazol-2-yl)-5-oxo-5,7-dihydro-6H-pyrrolo[3,4-b]pyridin-6-yl)-3-O-(2,4-difluorophenyl)-threo-pentitol (Optical Isomer)]",HDAC6 inhibitory rate (%) (10 μM),HDAC6 enzyme,100%
"O=C1c2cc(-c3nnc(C(F)F)o3)cnc2CN1[C@@H]1COCC[C@H]1Oc1cccc(F)c1F [Example 657, 1,5-anhydro-2,4-dideoxy-2-{3-[5-(difluoromethyl)-1,3,4-oxadiazol-2-yl]-5-oxo-5,7-dihydro-6H-pyrrolo[3,4-b]pyridin-6-yl}-3-O-(2,3-difluorophenyl)-threo-pentitol (optical isomer)]",inhibition at 10 µM,HDAC6 enzyme,100%
"O=C1c2cc(-c3nnc(C(F)F)o3)cnc2CN1[C@@H]1COCC[C@H]1Oc1c(F)cccc1F [Example 659, 1,5-anhydro-2,4-dideoxy-2-{3-[5-(difluoromethyl)-1,3,4-oxadiazol-2-yl]-5-oxo-5,7-dihydro-6H-pyrrolo[3,4-b]pyridin-6-yl}-3-O-(2,6-difluorophenyl)-threo-pentitol (optical isomer)]",inhibition at 10 µM,HDAC6 enzyme,99%
"O=C1c2cc(-c3nnc(C(F)F)o3)cnc2CN1[C@@H]1COCC[C@H]1Oc1c(F)cccc1F [Example 660, 1,5-anhydro-2,4-dideoxy-2-{3-[5-(difluoromethyl)-1,3,4-oxadiazol-2-yl]-5-oxo-5,7-dihydro-6H-pyrrolo[3,4-b]pyridin-6-yl}-3-O-(2,6-difluorophenyl)-threo-pentitol (optical isomer)]",HDAC6 inhibitory rate (%) (10 μM),HDAC6 enzyme,100%
"O=C1c2cc(-c3nnc(C(F)F)o3)cnc2CN1[C@@H]1CCCC[C@@H]1NC(=O)C(F)(F)C(F)(F)F [Example 661, N-[(1S,2R)-2-{3-[5-(difluoromethyl)-1,3,4-oxadiazol-2-yl]-5-oxo-5,7-dihydro-6H-pyrrolo[3,4-b]pyridin-6-yl}cyclohexyl]-2,2,3,3,3-pentafluoropropanamide]",inhibition at 10 µM,HDAC6 enzyme,99%
O=P1(N(CCCl)CCCl)NCCCO1 (stereo not drawn) [cyclophosphamide],"micronucleated immature erythrocytes incidences (MNIE %), mean ± SD","bone-marrow cells; rat bone marrow, positive control 20 mg/kg/day",↑2.77 ± 0.88 %
CC[C@@]1(O)C(=O)OCc2c1cc1n(c2=O)Cc2cc3cc4c(cc3nc2-1)OCO4 [test article],"% tail DNA, mean ± SD","[1]; rat liver, 1000 mg/kg/day oral",0.08 ± 0.03%
same,"% tail DNA, mean ± SD","[1]; rat liver, 2000 mg/kg/day oral",0.11 ± 0.04%
same,"% tail DNA, mean ± SD","[1]; rat stomach, 1000 mg/kg/day oral",0.59 ± 0.22%
same,"% tail DNA, mean ± SD","[1]; rat stomach, 2000 mg/kg/day oral",0.48 ± 0.21%
same,"micronucleated immature erythrocytes incidences (MNIE %), mean ± SD","bone-marrow cells; rat, in vivo, po, 1000 mg/kg/day",0.10 ± 0.04%
same,"micronucleated immature erythrocytes incidences (MNIE %), mean ± SD","bone-marrow cells; rat, in vivo, po, 2000 mg/kg/day",0.10 ± 0.03%
